Laboratory results: BindingDB's records for doi:10.7270/Q2ZC817P (The Scripps Research Institute Molecular Screening Center, 2007)
Structures can show the parent of a compound that is named as a salt.

Molecular target: Sphingosine 1-phosphate receptor 1 (Homo sapiens, UniProt P21453)
Assay: S1P1 agonism potentiation – cell-based, potentiator mode, 60K MLSMR set, dose response (AID 466)
Details: not given

Chain of Sphingosine 1-phosphate receptor 1 (P21453 whole entry): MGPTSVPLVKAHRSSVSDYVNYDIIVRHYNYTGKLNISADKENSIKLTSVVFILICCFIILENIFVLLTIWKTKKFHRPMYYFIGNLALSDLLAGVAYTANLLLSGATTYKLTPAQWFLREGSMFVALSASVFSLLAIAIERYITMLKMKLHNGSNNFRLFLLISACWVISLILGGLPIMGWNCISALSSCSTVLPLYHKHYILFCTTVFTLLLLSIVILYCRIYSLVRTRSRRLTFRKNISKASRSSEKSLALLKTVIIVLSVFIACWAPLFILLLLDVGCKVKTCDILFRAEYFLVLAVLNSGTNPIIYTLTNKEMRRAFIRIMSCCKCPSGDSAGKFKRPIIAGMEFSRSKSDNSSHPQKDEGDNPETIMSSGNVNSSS

Question: With CCCCn1ccnc1C(=O)c1cccc(S(=O)(=O)N2c3ccccc3CC2C)c1 (centres undefined) [(1-butyl-2-imidazolyl)-[3-[(2-methyl-2,3-dihydroindol-1-yl)sulfonyl]phenyl]methanone] as the compound, how does the EC50 read?
Answer: 9.16 µM

Question: With CCOc1nc(C)ccc1-c1noc(-c2ccncc2)n1 [2-ethoxy-6-methyl-3-[5-(4-pyridinyl)-1,2,4-oxadiazol-3-yl]pyridine] as the compound, how does the EC50 read?
Answer: 6.59 µM

Question: For Cn1c(C(=O)N2CCCc3ccccc32)cc2sccc21 [(3,4-Dihydro-2H-quinolin-1-yl)-(4-methyl-4H-thieno[3,2-b]pyrrol-5-yl)-methanone], which EC50 is on record?
Answer: 1.47 µM

Question: O=C(CSc1nc2ccccc2o1)Nc1ccc(N2CCOCC2)c(Cl)c1 [2-(1,3-benzoxazol-2-ylsulfanyl)-N-(3-chloranyl-4-morpholin-4-yl-phenyl)ethanamide] was tested. Which EC50 did it give?
Answer: 1.25 µM

Question: How did the EC50 turn out when CN(C)CC(C(=O)c1ccccc1)c1ccccc1 (centres undefined) [3-(dimethylamino)-1,2-diphenyl-1-propanone;hydrochloride] was run?
Answer: 12 µM

Question: With CCOC(=O)c1ccc2c(c1)C(=O)N(C1CCCCC1)C2=O [2-cyclohexyl-1,3-diketo-isoindoline-5-carboxylic acid ethyl ester] as the compound, how does the EC50 read?
Answer: > 95 µM

Question: For Cc1oc2cc(O)cc(O)c2c(=O)c1-c1ccc2c(c1)OCCCO2 [3-(3,4-dihydro-2H-1,5-benzodioxepin-7-yl)-2-methyl-5,7-bis(oxidanyl)chromen-4-one], which EC50 is on record?
Answer: 3.73 µM

Question: Which EC50 does the source give for Cc1noc(/C=C/N(C)C)c1S(=O)(=O)N1CCN(c2ccccc2)CC1 [(E)-N,N-dimethyl-2-[3-methyl-4-(4-phenylpiperazin-1-yl)sulfonyl-1,2-oxazol-5-yl]ethenamine] here?
Answer: > 95 µM

Question: For Clc1ccc(NCn2cncn2)nc1, which EC50 is on record?
Answer: > 95 µM

Question: Which EC50 does the source give for Cc1cc(C(=O)CSc2nnc(-c3ccccc3)n2-c2ccccc2)c(C)n1-c1nnc[nH]1 here?
Answer: 6.13 µM

Question: CC(C)(C)C1CCC2(CC1)C(C#N)=C(SCC(=O)Nc1ccccc1)NC(=O)C2C#N (centres undefined) [2-[(9-tert-butyl-1,5-dicyano-2-oxidanylidene-3-azaspiro[5.5]undec-4-en-4-yl)sulfanyl]-N-phenyl-ethanamide] was tested. Which EC50 did it give?
Answer: 4.71 µM

Question: COc1ccc(N2CCn3c2nc2c3c(=O)n(CCCc3ccccc3)c(=O)n2C)c(OC)c1 [6-(2,4-dimethoxyphenyl)-4-methyl-2-(3-phenylpropyl)-7,8-dihydropurin[7,8-a]imidazole-1,3-quinone] was tested. Which EC50 did it give?
Answer: 8.71 µM

Question: How did the EC50 turn out when CN=C(NC#N)SCC(=O)c1ccc(Cl)cc1Cl [[2-(2,4-dichlorophenyl)-2-oxidanylidene-ethyl] N-cyano-N'-methyl-carbamimidothioate] was run?
Answer: 4.32 µM

Question: For CN(C)c1ccnc2sc3c(=O)n(Cc4ccccc4)cnc3c12 [3-Benzyl-9-dimethylamino-3H-pyrido[3',2':4,5]thieno[3,2-d]pyrimidin-4-one], which EC50 is on record?
Answer: 3.37 µM

Question: How did the EC50 turn out when Cc1ccc(-c2n[nH]c(=S)n2C)cc1 was run?
Answer: > 95 µM

Question: Which EC50 does the source give for Cc1cc(C(=O)CSc2nnnn2C)c(C)n1-c1cccc(F)c1 [1-[1-(3-fluorophenyl)-2,5-dimethyl-3-pyrrolyl]-2-[(1-methyl-5-tetrazolyl)thio]ethanone] here?
Answer: 1.88 µM

Question: Which EC50 does the source give for CC1=NC(=O)NC(c2ccc(F)cc2)C1C(=O)OCc1ccc2c(c1)OCO2 (centres undefined) [1,3-benzodioxol-5-ylmethyl 4-(4-fluorophenyl)-6-methyl-2-oxidanylidene-3,4-dihydro-1H-pyrimidine-5-carboxylate] here?
Answer: 0.631 µM

Question: For CCOC(=O)C1CCN(c2ncnc3c2oc2ccc(Cl)cc23)CC1 [1-(8-chloro-4-benzofuro[3,2-d]pyrimidinyl)-4-piperidinecarboxylic acid ethyl ester], which EC50 is on record?
Answer: > 95 µM

Question: How did the EC50 turn out when c1ccc(CN2CCN(c3ncnc4c3[nH]c3ccccc34)CC2)cc1 [MLS000078384] was run?
Answer: 3.95 µM

Question: For O=C(c1cc(-c2ccc(O)cc2)on1)N1CCc2ccccc2C1 [4-[3-(3,4-dihydro-1H-isoquinolin-2-ylcarbonyl)-2H-1,2-oxazol-5-ylidene]cyclohexa-2,5-dien-1-one], which EC50 is on record?
Answer: 4.07 µM

Question: For COc1ccc(NC(=O)c2cnn3c(C(F)(F)F)cc(-c4ccco4)nc23)cc1OC [MLS000109325], which EC50 is on record?
Answer: > 95 µM

Question: CCOC(=O)c1c(C)[nH]c(C(=O)C(C)OC(=O)c2cccc(OCc3c(C)noc3C)c2)c1C (centres undefined) [MLS000054923] was tested. Which EC50 did it give?
Answer: 4.58 µM

Question: Which EC50 does the source give for COc1ccc(CNC(=O)c2cc3c(C)nc4ccccc4c3o2)c(OC)c1 [MLS000118441] here?
Answer: 5.06 µM

Question: Which EC50 does the source give for CCCN(C(=O)c1cccs1)c1nnc(-c2ccncc2)s1 [MLS000074637] here?
Answer: 2.96 µM

Question: How did the EC50 turn out when O=C(Nc1c(F)cc(F)cc1Br)c1cc(-c2ccc(O)cc2)on1 [MLS000116264] was run?
Answer: 2.14 µM

Question: With CCCCc1ccc(C2C(C#N)C(=N)SC(=N)C2C#N)s1 (centres undefined) [2,6-bis(azanyl)-4-(5-butylthiophen-2-yl)-4H-thiopyran-3,5-dicarbonitrile] as the compound, how does the EC50 read?
Answer: 13.7 µM

Question: Which EC50 does the source give for CC(C)c1cc(C(F)(F)F)n2nc(C(=O)Nc3ccc4c(c3)OCO4)cc2n1 [5-Isopropyl-7-trifluoromethyl-pyrazolo[1,5-a]pyrimidine-2-carboxylic acid benzo[1,3]dioxol-5-ylamide] here?
Answer: 2.84 µM

Question: With Cc1csc(NC(=O)c2nc(-c3ccccc3)n(-c3ccccc3)n2)n1 [MLS000058347] as the compound, how does the EC50 read?
Answer: 9.69 µM

Question: For CCN(CC)C(=O)C1CCN(S(=O)(=O)c2ccc3oc4ccccc4c3c2)CC1 [1-(2-dibenzofuranylsulfonyl)-N,N-diethyl-4-piperidinecarboxamide], which EC50 is on record?
Answer: > 30 µM

Question: Cc1nn(C(=O)c2cccs2)c(N)c1-c1ccccc1 [(5-amino-3-methyl-4-phenyl-1-pyrazolyl)-thiophen-2-ylmethanone] was tested. Which EC50 did it give?
Answer: 4.9 µM

Question: c1ccc2c(c1)oc1c(NCc3ccc4c(c3)OCO4)ncnc12 [MLS000057790] was tested. Which EC50 did it give?
Answer: 6.46 µM

Question: Which EC50 does the source give for O=C(CSc1nnc(-c2c[nH]c3ccccc23)o1)N(Cc1ccccc1)c1ccc(F)cc1 here?
Answer: 0.837 µM

Question: Which EC50 does the source give for CCCc1ccc(Oc2c[nH]nc2-c2ccc(O)c(C)c2O)cc1 [SMR000024172] here?
Answer: 14.9 µM

Question: CCOc1ccc(-c2nc(CSCC(=O)N3CCN(c4cccc(OC)c4)CC3)c(C)o2)cc1 [1-[4-(3-methoxyphenyl)piperazino]-2-[(5-methyl-2-p-phenetyl-oxazol-4-yl)methylthio]ethanone] was tested. Which EC50 did it give?
Answer: 7.42 µM

Question: Which EC50 does the source give for Nc1ccc(N2CCCCCC2)cc1 [4-(1-azepanyl)aniline;hydrochloride] here?
Answer: > 30 µM

Question: Cc1nnc(SCC(=O)N2CCC(c3noc4ccc(F)cc34)CC2)s1 [1-[4-(5-fluoranyl-1,2-benzoxazol-3-yl)piperidin-1-yl]-2-[(5-methyl-1,3,4-thiadiazol-2-yl)sulfanyl]ethanone] was tested. Which EC50 did it give?
Answer: 8.2 µM

Question: For COCCn1c(C)cc(C(=O)CSc2nc3ccccc3o2)c1C [2-(1,3-benzoxazol-2-ylsulfanyl)-1-[1-(2-methoxyethyl)-2,5-dimethyl-pyrrol-3-yl]ethanone], which EC50 is on record?
Answer: > 95 µM

Question: How did the EC50 turn out when Clc1ccc(OCCN2CCN(c3ncnc4sccc34)CC2)cc1 [4-[4-[2-(4-chloranylphenoxy)ethyl]piperazin-1-yl]thieno[2,3-d]pyrimidine] was run?
Answer: 0.108 µM

Same assay, conditions: inactive by the depositor's call

Question: CCCOc1ccc(-c2nnc(-c3ccncc3)o2)cc1 [2-(4-propoxyphenyl)-5-(4-pyridyl)-1,3,4-oxadiazole] was tested. Which EC50 did it give?
Answer: 66.5 µM

Question: Which EC50 does the source give for CCOC(=O)Cc1csc(NC(=O)c2ccc(Br)s2)n1 [2-[2-[(5-bromothiophene-2-carbonyl)amino]thiazol-4-yl]acetic acid ethyl ester] here?
Answer: 16.5 µM

Question: Which EC50 does the source give for CC1Cc2cc(-c3csc(NC(=O)Cc4cccs4)n3)ccc2N1S(C)(=O)=O (centres undefined) [MLS000027766] here?
Answer: 10.4 µM

Question: For O=C(CSc1nnc(-c2ccc(Cl)cc2)n1Cc1ccco1)c1cccs1 [2-[[5-(4-chlorophenyl)-4-(2-furanylmethyl)-1,2,4-triazol-3-yl]thio]-1-thiophen-2-ylethanone], which EC50 is on record?
Answer: 13.8 µM

Question: For CC1CCN(S(=O)(=O)c2ccc3c(c2)oc(=O)n3CC(=O)NCc2ccc3c(c2)OCO3)CC1 [2-[2-keto-6-(4-methylpiperidino)sulfonyl-1,3-benzoxazol-3-yl]-N-piperonyl-acetamide], which EC50 is on record?
Answer: 14.6 µM

Question: How did the EC50 turn out when O=C(c1ccco1)N1CCN(c2ncnc3c2[nH]c2ccc(Br)cc23)CC1 [MLS000078404] was run?
Answer: 15.5 µM

Question: Cc1ccc(C(=O)c2cncc(Br)c2)cc1 [(5-bromanylpyridin-3-yl)-(4-methylphenyl)methanone] was tested. Which EC50 did it give?
Answer: 12.6 µM

Question: How did the EC50 turn out when COc1ccc(OCCCSc2ncccn2)cc1 [2-[3-(4-methoxyphenoxy)propylsulfanyl]pyrimidine] was run?
Answer: 48.2 µM

Question: How did the EC50 turn out when Cn1nc(CC(=O)Nc2ccc(N3CCN(C(=O)OC(C)(C)C)CC3)cc2)c2ccccc2c1=O [4-[4-[[2-(3-methyl-4-oxo-1-phthalazinyl)-1-oxoethyl]amino]phenyl]-1-piperazinecarboxylic acid tert-butyl ester] was run?
Answer: 14.4 µM

Question: For COc1cccc(NC(=O)Nc2nnc(N3CCCCC3C)s2)c1 (centres undefined) [1-(3-methoxyphenyl)-3-[5-(2-methyl-1-piperidinyl)-1,3,4-thiadiazol-2-yl]urea], which EC50 is on record?
Answer: 11.5 µM

Question: For Cc1ccc(OCCn2cc(C(=N)NO)c3ccccc32)cc1C [1-[2-(3,4-dimethylphenoxy)ethyl]-N'-hydroxy-1H-indole-3-carboximidamide], which EC50 is on record?
Answer: 11.2 µM

Question: How did the EC50 turn out when COc1cccc(-c2nnc3sc(C4CCCCC4)nn23)c1 [6-cyclohexyl-3-(3-methoxyphenyl)-[1,2,4]triazolo[3,4-b][1,3,4]thiadiazole] was run?
Answer: 30.6 µM

Question: How did the EC50 turn out when O=C(OC1CCCCC1)c1ccc(NC(=O)c2ccco2)cc1 [4-(2-furoylamino)benzoic acid cyclohexyl ester] was run?
Answer: 12.2 µM

Question: How did the EC50 turn out when CC(C)Cc1cc(C(=O)Nc2cc(Br)ccc2O)no1 [MLS000116399] was run?
Answer: 16.5 µM

Question: Which EC50 does the source give for Cc1nc(C)c(C(=O)Nc2ccc(Oc3ccccc3)cc2)o1 [2,4-dimethyl-N-(4-phenoxyphenyl)-1,3-oxazole-5-carboxamide] here?
Answer: 10.5 µM

Question: With CC1=CC(C)(C)Nc2ccc(OC(=O)c3ccco3)cc21 as the compound, how does the EC50 read?
Answer: 18 µM

Question: CCCC(=O)Nc1ccc(-c2nc3cc(C)c(C)cc3o2)cc1 [MLS000089940] was tested. Which EC50 did it give?
Answer: 10.8 µM

Question: For CC1=CC(C)(C)Nc2ccc(OC(=O)c3cccnc3)cc21 [(2,2,4-trimethyl-1H-quinolin-6-yl) pyridine-3-carboxylate], which EC50 is on record?
Answer: 11 µM

Question: With CN(CC1CCCO1)S(=O)(=O)c1ccc(C(=O)Nc2nc(-c3ccccn3)cs2)cc1 (centres undefined) [4-[methyl(2-oxolanylmethyl)sulfamoyl]-N-[4-(2-pyridinyl)-2-thiazolyl]benzamide] as the compound, how does the EC50 read?
Answer: 24 µM

Question: For Cn1cccc1C(=O)OCc1cc(Cl)cc2c1OCOC2 [(6-chloranyl-4H-1,3-benzodioxin-8-yl)methyl 1-methylpyrrole-2-carboxylate], which EC50 is on record?
Answer: 17.2 µM

Question: Which EC50 does the source give for COc1cccc(-c2nc(-c3ccc(NC(=O)c4cccnc4)cc3)no2)c1 [MLS000047254] here?
Answer: 22.1 µM
